# Reference: patent US10794932B2, “Biosensor for the detection of a biological target, and method for manufacturing the same” (The Governing Council of The University of Toronto, priority 2016, dated 2020)
# How the values were obtained:
# [1] = biological target: T1, TLR2 (Mus musculus, UniProt Q9QUN7); experiment: TLR multiplex sensor, EIS film resistance before/after exposure (Example 5), TLR2 sensor; format: binding; settings: exposure 20 minutes
# T1 sequence (Q9QUN7 25-587): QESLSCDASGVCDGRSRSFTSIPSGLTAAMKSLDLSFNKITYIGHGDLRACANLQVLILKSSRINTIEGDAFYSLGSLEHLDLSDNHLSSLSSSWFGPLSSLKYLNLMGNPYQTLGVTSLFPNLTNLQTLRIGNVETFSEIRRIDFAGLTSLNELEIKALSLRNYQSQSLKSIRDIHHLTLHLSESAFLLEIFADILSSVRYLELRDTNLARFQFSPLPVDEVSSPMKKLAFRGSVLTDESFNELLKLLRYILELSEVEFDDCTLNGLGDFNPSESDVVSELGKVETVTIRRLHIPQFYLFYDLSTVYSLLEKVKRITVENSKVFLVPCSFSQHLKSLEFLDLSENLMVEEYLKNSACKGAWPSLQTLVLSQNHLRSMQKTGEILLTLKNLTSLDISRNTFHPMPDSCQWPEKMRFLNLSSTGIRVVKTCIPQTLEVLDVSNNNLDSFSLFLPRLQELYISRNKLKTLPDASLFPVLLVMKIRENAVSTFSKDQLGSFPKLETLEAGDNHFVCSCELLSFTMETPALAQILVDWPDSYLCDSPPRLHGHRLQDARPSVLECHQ
# Method: (§1) For each multiplex TLR sensor, 5 separate gold electrodes were used for binding TLR 1 to 5. The 5 modified electrodes/sensors were exposed to the analyte solution and evaluated one by one using potentiostats and electrochemical cells.
# (§2) The preparation of each TLR biosensor was evaluated using EIS. It is understood that cyclic voltammetry as well as electrochemical impedance microscopy can also be used for monitoring the modification. […] Ethanolamine was then applied to deactivate unreacted LPA. Due to dissociation of unspecific absorbed TLR, the Rct dropped slightly. Experimental curves were evaluated using a model to obtain the Rct values, which can be seen at FIG. 9. Measurements from at least triplicated samples prepared were used to obtain statistic information.
# (§3) The TLR1 sensor was exposed to an E. coli K12 whole-cell buffer solution for 20 minutes. The sensor was then removed, washed thoroughly and characterized in the electrochemical cell measuring the Rct again. The difference in Rct before and after exposure is the response triggered by the target. The same protocol was carried out for all remaining TLRs (TLRs 2-5) to obtain one set of pattern for E. coli K12 (FIGS. 10b to 10e). Multiple sets were investigated for statistical relevance. […]
# [2] = biological target: T2, TLR3 (Mus musculus, UniProt Q99MB1); experiment: TLR multiplex sensor, EIS film resistance before/after exposure (Example 5), TLR3 sensor; format: binding; settings: exposure 20 minutes
# T2 sequence (Q99MB1 26-905): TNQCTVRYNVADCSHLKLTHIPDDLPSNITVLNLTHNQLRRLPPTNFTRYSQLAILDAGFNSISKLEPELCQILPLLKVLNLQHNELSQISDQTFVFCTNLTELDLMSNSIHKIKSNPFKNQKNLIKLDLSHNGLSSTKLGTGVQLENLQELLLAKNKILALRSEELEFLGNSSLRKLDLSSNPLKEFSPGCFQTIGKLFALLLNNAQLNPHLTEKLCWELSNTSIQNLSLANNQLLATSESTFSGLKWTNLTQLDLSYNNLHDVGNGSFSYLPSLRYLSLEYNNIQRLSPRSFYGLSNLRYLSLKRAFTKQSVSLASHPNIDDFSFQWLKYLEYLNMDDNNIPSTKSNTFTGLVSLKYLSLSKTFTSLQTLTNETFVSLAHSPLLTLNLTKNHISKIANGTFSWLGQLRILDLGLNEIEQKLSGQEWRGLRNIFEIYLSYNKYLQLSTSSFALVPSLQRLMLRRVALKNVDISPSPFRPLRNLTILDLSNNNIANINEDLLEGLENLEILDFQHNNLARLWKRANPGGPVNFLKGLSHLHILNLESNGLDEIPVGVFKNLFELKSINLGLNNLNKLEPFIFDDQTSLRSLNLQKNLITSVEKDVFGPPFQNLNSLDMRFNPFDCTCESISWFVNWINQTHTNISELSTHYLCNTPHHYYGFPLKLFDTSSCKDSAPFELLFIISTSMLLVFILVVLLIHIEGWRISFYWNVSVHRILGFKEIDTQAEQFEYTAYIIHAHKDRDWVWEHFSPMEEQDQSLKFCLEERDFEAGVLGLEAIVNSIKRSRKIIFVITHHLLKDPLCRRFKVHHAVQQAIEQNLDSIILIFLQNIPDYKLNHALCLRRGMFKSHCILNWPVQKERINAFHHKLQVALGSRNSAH
# Method: as §1, §2, §3
# [3] = system: TLR4; experiment: TLR multiplex sensor, EIS film resistance before/after exposure (Example 5), TLR4 sensor; format: binding; settings: exposure 20 minutes
# Method: as §1, §2, §3
# [4] = biological target: TLR5 (Mus musculus, UniProt Q9JLF7); experiment: TLR multiplex sensor, EIS film resistance before/after exposure (Example 5), TLR5 sensor; format: binding; settings: exposure 20 minutes
# Method: as §1, §2, §3
# [5] = biological target: T3, rmTLR3 (Mus musculus, UniProt Q99MB1); experiment: Selectivity test, TLR3 sensor, EIS; format: binding; settings: 10 μM
# T3 construct: purchased
# T3 sequence (Q99MB1 26-905): T2 sequence (Q99MB1 26-905)
# [6] = system: Toll-like receptor expressing cells; settings: cited from earlier work
# Chain of TLR5 (Q9JLF7 27-859): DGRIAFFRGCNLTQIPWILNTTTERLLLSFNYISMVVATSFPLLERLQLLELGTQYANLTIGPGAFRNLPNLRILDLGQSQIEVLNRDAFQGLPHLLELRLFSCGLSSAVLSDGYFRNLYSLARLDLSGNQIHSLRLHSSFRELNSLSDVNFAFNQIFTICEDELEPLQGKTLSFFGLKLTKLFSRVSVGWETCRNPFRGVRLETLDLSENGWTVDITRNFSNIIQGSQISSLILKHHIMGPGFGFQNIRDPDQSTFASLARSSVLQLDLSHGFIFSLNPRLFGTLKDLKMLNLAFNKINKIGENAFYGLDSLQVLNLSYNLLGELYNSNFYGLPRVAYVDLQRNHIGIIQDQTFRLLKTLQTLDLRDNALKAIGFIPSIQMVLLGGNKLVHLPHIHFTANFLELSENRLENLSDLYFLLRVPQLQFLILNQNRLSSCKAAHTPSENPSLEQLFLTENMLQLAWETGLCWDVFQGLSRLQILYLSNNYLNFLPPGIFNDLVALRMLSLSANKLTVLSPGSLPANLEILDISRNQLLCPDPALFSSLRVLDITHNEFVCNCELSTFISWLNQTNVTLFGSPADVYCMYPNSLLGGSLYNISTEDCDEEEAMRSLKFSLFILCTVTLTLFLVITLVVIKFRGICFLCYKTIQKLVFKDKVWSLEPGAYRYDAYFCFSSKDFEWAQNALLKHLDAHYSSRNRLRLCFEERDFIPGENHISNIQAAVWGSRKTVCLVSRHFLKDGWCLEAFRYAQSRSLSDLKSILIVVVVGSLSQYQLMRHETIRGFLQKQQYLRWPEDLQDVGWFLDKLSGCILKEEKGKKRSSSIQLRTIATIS
substance,measurement,setting,value
Pam3CSK4,delta Rct %,[1],35%
same,delta Rct %,[2],limited responses
same,delta Rct %,[3],limited responses
same,delta Rct %,[4],limited responses
same,electrochemical response (selectivity test),[5],slight signal variations
same,detection (lowest level previously reported),[6],2 µg/mL
